From ChEMBL document CHEMBL3286216, “Synthesis and biological evaluation of CHX-DAPYs as HIV-1 non-nucleoside reverse transcriptase inhibitors” (Bioorg Med Chem, 2014)

What was measured:
[1] = system: Human immunodeficiency virus 1; test: Antiviral activity against HIV1 3B infected in human MT4 cells assessed as inhibition of virus-induced cytopathicity measured 5 days post viral infection by MTT assay; assay type: functional, organism-based; settings: Human immunodeficiency virus 1, 3B, MT4, 120 h
[2] = system: Human immunodeficiency virus 1; test: Antiviral activity against HIV1 RES056 harboring RT K103N,Y181C double mutant infected in human MT4 cells assessed as inhibition of virus-induced cytopathicity measured 5 days post viral infection by MTT assay; assay type: functional, organism-based; settings: Human immunodeficiency virus 1, RES056, MT4, 120 h
[3] = Cytotoxicity against human MT4 cells by MTT assay; assay type: cell-based
[4] = Selectivity index, ratio CC50 for human MT4 cells to EC50 for HIV 1 3B
[5] = system: Human immunodeficiency virus 2; test: Antiviral activity against HIV2 ROD infected in human MT4 cells assessed as inhibition of virus-induced cytopathicity measured 5 days post viral infection by MTT assay; assay type: functional, organism-based; settings: Human immunodeficiency virus 2, ISOLATE ROD, MT4, 120 h

Row | Compound | EC50 [1] [µM] | EC50 [2] [µM] | CC50 [3] [µM] | selectivity ratio ([4]; MT4 cells) | EC50 [5] [µM] | selectivity ratio ([4]; mt4)
1 | CC(C)Nc1cccnc1N1CCN(C(=O)c2cc3cc(NS(C)(=O)=O)ccc3[nH]2)CC1 [DELAVIRDINE] | 0.085 | > 43.8 | > 43.8 | > 511 |  | 
2 | Cc1cc(C(Cl)c2ccc(Br)cc2)nc(Nc2ccc(C#N)cc2)n1 (stereo not given) | 0.435 | > 31.9 | 31.9 | 75 | > 31.9 | 
3 | N#Cc1ccc(Nc2nccc(C(Cl)c3cccc(Br)c3)n2)cc1 (stereo not given) | 0.009 | 8.2 | 30.4 | 3110 | > 30.4 | 
4 | Cc1cc(C(Cl)c2ccc(F)cc2)nc(Nc2ccc(C#N)cc2)n1 (stereo not given) | 5.84 | > 31.1 | 31.1 | 5 | > 31.1 | 
5 | Cc1cc(C(Cl)c2ccc(C(C)(C)C)cc2)nc(Nc2ccc(C#N)cc2)n1 (stereo not given) | 0.174 | > 30.3 | 30.3 | 173 | > 30.3 | 
6 | Cc1cc(C#N)cc(C)c1Oc1nc(Nc2ccc(C#N)cc2)nc(N)c1Br [ETRAVIRINE] |  | 0.0147 | 14.2 |  | > 14.2 | 7380
7 | N#Cc1ccc(Nc2nccc(C(Cl)c3ccc(Br)cc3)n2)cc1 (stereo not given) | 0.038 | > 32.5 | 32.5 | 875 | > 32.5 | 
8 | COc1ccc(C(Cl)c2ccnc(Nc3ccc(C#N)cc3)n2)cc1 (stereo not given) | 0.219 | > 33.6 | ≥ 33.6 |  | > 33.6 | 
9 | Cc1ccnc2c1NC(=O)c1cccnc1N2C1CC1 [NEVIRAPINE] |  | > 15 |  | > 163 |  | 
10 | N#Cc1ccc(Nc2nccc(C(Cl)c3ccc(Cl)cc3)n2)cc1 (stereo not given) | 0.068 | > 36.1 | 36.1 | 545 | > 36.1 | 
11 | Cc1cn([C@H]2C[C@H](N=[N+]=[N-])[C@@H](CO)O2)c(=O)[nH]c1=O [ZIDOVUDINE] |  | 0.007 | > 93.5 |  | 0.005 | > 17000
12 | Cc1ccc(C(Br)c2ccnc(Nc3ccc(C#N)cc3)n2)cc1 (stereo not given) | 0.047 | > 31.5 | 31.5 | 672 | > 31.5 | 
13 | Cc1cnc(Nc2ccc(C#N)cc2)nc1C(Cl)c1ccc(Br)cc1 (stereo not given) | 0.109 | > 10.3 | 10.3 | 95 | > 10.3 | 
14 | Cc1cnc(Nc2ccc(C#N)cc2)nc1C(Cl)c1ccc(F)cc1 (stereo not given) | 7.88 | > 30.8 | 30.8 | 4 | > 30.8 | 
15 | N#Cc1ccc(Nc2nccc(C(Cl)c3cccc(F)c3)n2)cc1 (stereo not given) | 1.36 | > 36.8 | 36.8 | 27 | > 36.8 | 
16 | O=C1Nc2ccc(Cl)cc2[C@@](C#CC2CC2)(C(F)(F)F)O1 [EFAVIRENZ] |  | 0.27 | > 6.3 |  |  | > 1140
17 | N#Cc1ccc(Nc2nccc(C(Br)c3ccccc3)n2)cc1 (stereo not given) | 0.2 | > 69 | 69 | 348 | > 69 | 
18 | Cc1ccc(C(Cl)c2ccnc(Nc3ccc(C#N)cc3)n2)cc1 (stereo not given) | 0.069 | > 49.7 | 49.7 | 713 | > 49.7 | 
19 | Cc1cnc(Nc2ccc(C#N)cc2)nc1C(Cl)c1ccc(C(C)(C)C)cc1 (stereo not given) | 1.79 | > 28.7 | 28.7 | 16 | > 28.7 | 
20 | CC(C)(C)c1ccc(C(Cl)c2ccnc(Nc3ccc(C#N)cc3)n2)cc1 (stereo not given) | 0.17 | > 32.9 | 32.9 | 193 | > 32.9 | 
21 | N#Cc1ccc(Nc2nccc(C(Cl)c3ccccc3)n2)cc1 (stereo not given) | 0.016 | > 37.8 | 37.8 | 2340 | > 37.8 | 
22 | N#Cc1ccc(Nc2nccc(C(Cl)c3cccc(Cl)c3)n2)cc1 (stereo not given) | 0.005 | > 24.3 | 24.3 | 5160 | > 24.3 | 
23 | Nc1ccn([C@@H]2CS[C@H](CO)O2)c(=O)n1 [LAMIVUDINE] | 2.44 |  | > 87.2 |  | 7.2 | > 36
24 | N#Cc1ccc(Nc2nccc(C(Cl)c3ccc(F)cc3)n2)cc1 (stereo not given) | 1.83 | > 35.4 | 35.4 | 19 | > 35.4 | 
25 | N#Cc1ccc(Nc2nccc(C(Cl)c3cccc4ccccc34)n2)cc1 (stereo not given) | 0.202 | > 11.3 | 11.3 | 56 | > 11.3 | 
